In patent publication US8962574B2 (Boehringer Ingelheim International GmbH, priority 2008, dated 2015):

Key:
[1] = test system: patients with atrial fibrillation at risk of stroke; test: RELY Clinical Trial, dabigatran 110 mg or 150 mg twice daily versus warfarin; type: in vivo
Excerpt: The primary study outcome was stroke or systemic embolism. The primary safety outcome was major hemorrhage. Secondary outcomes were stroke, systemic embolism and death. […] All other bleeding was considered minor.
All analyses were based on intention-to-treat.

AF patients = conditions: ACTIVE W, warfarin arm; cited from earlier work

## CC(=O)CC(c1ccccc1)c1c(O)c2ccccc2oc1=O (racemic) [warfarin, 3-(α-acetonylbenzyl)4-hydroxycoumarin]
[1]; adjusted to INR 2.0 to 3.0
  ALT or AST >3xULN: (2.1) %
  ALT or AST >3xULN with concurrent bilirubin >2xULN: (0.4) %
  ALT or AST >3xULN with concurrent bilirubin >2xULN, number of patients: 22
  ALT or AST >3xULN, number of patients: 126
  Adverse Event Arthralgia: (5.5) %
  Adverse Event Arthralgia, number of patients: 328
  Adverse Event Atrial fibrillation: (5.4) %
  Adverse Event Atrial fibrillation, number of patients: 326
  Adverse Event Back pain: (5.5) %
  Adverse Event Back pain, number of patients: 331
  Adverse Event Chest pain: (5.7) %
  Adverse Event Chest pain, number of patients: 342
  Adverse Event Cough: (5.8) %
  Adverse Event Cough, number of patients: 345
  Adverse Event Diarrhea: (5.5) %
  Adverse Event Diarrhea, number of patients: 327
  Adverse Event Dizziness: (9.3) %
  Adverse Event Dizziness, number of patients: 555
  Adverse Event Dyspepsia: (1.4) %
  Adverse Event Dyspepsia, number of patients: 83
  Adverse Event Dyspnoea: (9.2) %
  Adverse Event Dyspnoea, number of patients: 550
  Adverse Event Fatigue: (5.9) %
  Adverse Event Fatigue, number of patients: 353
  Adverse Event Nasopharyngitis: (5.5) %
  Adverse Event Nasopharyngitis, number of patients: 327
  Adverse Event Peripheral edema: (7.6) %
  Adverse Event Peripheral edema, number of patients: 453
  Adverse Event Upper respiratory tract infection: (5.0) %
  Adverse Event Upper respiratory tract infection, number of patients: 297
  Adverse Event Urinary tract infection: (5.3) %
  Adverse Event Urinary tract infection, number of patients: 315
  Life threatening bleeding, Rate: 1.80 /100 Person Years
  Mortality rate (death from any cause): 4.13 % per year
  Other Major bleeding, Rate: 1.80 /100 Person Years
  Pulmonary embolism, Rate: 0.09 /100 Person Years
  Rate of hemorrhagic stroke: 0.38 % per year
  Rate of major hemorrhage (major bleeding): 3.46 % per year
  Rate of myocardial infarction: 0.54 % per year
  Rate of net benefit-risk outcome (major vascular events, major bleeding and death): 7.99 % per year
  Rate of primary outcome stroke or systemic embolism: 1.70 % per year
  Reason for discontinuation: Gastrointestinal bleeding: (0.9) %
  Reason for discontinuation: Gastrointestinal disorders (including pain, vomiting and diarrhea): (0.8) %
  Reason for discontinuation: Outcome event: (2.2) %
  Reason for discontinuation: Patient decision: (6.2) %
  Reason for discontinuation: SAE: (1.6) %
  Reason for discontinuation: SAE, number of patients: 95
  Stroke, systemic embolism, pulmonary embolism, myocardial infarction death or major bleed (net benefit), Rate: 7.99 /100 Person Years
  Study Drug Discontinuation At one year: 10%
  Study Drug Discontinuation At two years: (19) %
  hepatobiliary disorders (AE): (2.2) %
  hepatobiliary disorders (AE), number of patients: 132
  hepatobiliary disorders (SAE): (0.4) %
  hepatobiliary disorders (SAE), number of patients: 25
[1]; adjusted to INR 2.0 to 3.0, at 2.5 years
  Rate of discontinuation: 19%
[1]; adjusted to INR 2.0 to 3.0, listed as Warfarin
  Study Drug Discontinuation At one year: (10) %
AF patients
  Myocardial Infarction: 0.6% (warfarin)
  Stroke and systemic embolism (per 100 patient years): 1.5% (warfarin)
